Tests used:
[1] = test system: MDA-MB-231 breast cancer cell lines; assay: cytotoxicity, control cells vs cells overexpressing CYP1A1; format: cell-based
Description: The dependence of each compound's cytotoxic effects upon CYP1A1 was also examined, via screening of MDA-MB-231 breast cancer cell lines for cytotoxic response. The CYP1A1-dependence of the cytotoxic response of to each tested compound was specifically determined by comparing the cytotoxicity of each compound administered to control cells with that of the compound administered to corresponding cells that overexpressed CYP1A1. […]

[2] = test system: MDA-MB-468 and ZR51 breast cancer and JHH7 liver cancer cell lines
[3] = target: recombinant human Adenosine A2A (FAST-002C) receptor (Homo sapiens, UniProt P29274); assay: cAMP HTRF assay, Adenosine A2A receptor, antagonist mode; format: cell-based; conditions: HEK293; read-out: % Inhibition Average at maximal concentration
[4] = target: T1, recombinant human Adenosine A3 (FAST-004C) receptor (Homo sapiens, UniProt P0DMS8); assay: cAMP HTRF assay, Adenosine A3 receptor, antagonist mode; format: cell-based; conditions: CHO-K1; read-out: % Inhibition Average at maximal concentration
T1 sequence (P0DMS8 1-318): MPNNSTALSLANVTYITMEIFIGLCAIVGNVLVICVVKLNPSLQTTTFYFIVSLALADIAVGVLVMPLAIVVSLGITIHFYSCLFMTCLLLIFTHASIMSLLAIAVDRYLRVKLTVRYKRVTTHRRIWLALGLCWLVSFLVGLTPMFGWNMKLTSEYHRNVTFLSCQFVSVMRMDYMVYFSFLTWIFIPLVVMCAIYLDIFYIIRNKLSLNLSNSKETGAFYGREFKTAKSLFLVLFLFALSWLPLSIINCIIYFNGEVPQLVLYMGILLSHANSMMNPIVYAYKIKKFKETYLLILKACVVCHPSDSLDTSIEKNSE

[5] = target: T2, recombinant human Adenosine A1 (FAST-001C) receptor (Homo sapiens, UniProt P30542); assay: cAMP HTRF assay, Adenosine A1 receptor, antagonist mode; parameters: inhibition: dose or concentration left out as unconfirmed
T2 sequence (P30542 1-326): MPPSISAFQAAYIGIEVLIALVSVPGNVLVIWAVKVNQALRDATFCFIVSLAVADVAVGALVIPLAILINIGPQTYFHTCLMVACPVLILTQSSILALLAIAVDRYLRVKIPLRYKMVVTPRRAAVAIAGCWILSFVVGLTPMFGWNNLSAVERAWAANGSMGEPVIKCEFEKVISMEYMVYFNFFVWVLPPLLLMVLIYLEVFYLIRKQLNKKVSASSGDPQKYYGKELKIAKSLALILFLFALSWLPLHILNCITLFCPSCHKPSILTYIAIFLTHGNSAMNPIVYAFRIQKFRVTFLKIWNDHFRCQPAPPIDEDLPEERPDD

[6] = target: T3, recombinant human Adenosine A2B (FAST-003C) receptor (Homo sapiens, UniProt P29275); assay: cAMP HTRF assay, Adenosine A2B receptor, antagonist mode; parameters: inhibition: dose or concentration left out as unconfirmed
T3 sequence (P29275 1-332): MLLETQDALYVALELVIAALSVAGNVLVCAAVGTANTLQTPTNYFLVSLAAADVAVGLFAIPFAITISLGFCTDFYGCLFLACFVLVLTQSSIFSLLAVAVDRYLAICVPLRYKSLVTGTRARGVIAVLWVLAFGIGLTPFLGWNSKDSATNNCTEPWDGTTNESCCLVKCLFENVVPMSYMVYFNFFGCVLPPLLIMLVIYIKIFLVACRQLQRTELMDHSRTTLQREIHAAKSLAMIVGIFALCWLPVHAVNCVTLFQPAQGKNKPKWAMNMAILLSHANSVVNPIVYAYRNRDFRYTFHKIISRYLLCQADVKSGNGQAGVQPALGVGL

[7] = test system: MDA-MB-468 breast cancer cells; assay: Western immunoblot of treated cells over 24 hours; format: cell-based; conditions: FIG. 18
Method: Adherent cells were washed once with cold 1×PBS (Corning #01018002) and lysed with RIPA buffer (Sigma #R0278) supplemented by protease and phosphatase inhibitors (Sigma). Protein content was quantified using the DC Protein Assay (BioRad #5000111). Samples were reduced with (loading buffer) and boiled at 95° C. before being resolved by SDS gel electrophoresis on 4-20% Tris/glycine gels (Invitrogen). Proteins were transferred using the IBlot2 (Thermo #IB21001) onto the iBlot™ 2 nitrocellulose Transfer Stacks (Thermo #IB23001). The membranes were then blocked in Odyssey Blocking Buffer (Li-COR #927-40000) for one hour, and then probed overnight with primary antibodies diluted in blocking buffer. The following day, membranes were washed 3×5 mins with 1×TBST and then probed with LiCOR Infrared secondary antibodies for 1 hour at room temperature. Membranes were washed an additional 3×5 mins in 1×TBST and then imaged using the LiCOR Imager. […]

[8] = antagonist mode dose-response fit

Chain of recombinant human Adenosine A2A (FAST-002C) receptor (P29274 whole entry): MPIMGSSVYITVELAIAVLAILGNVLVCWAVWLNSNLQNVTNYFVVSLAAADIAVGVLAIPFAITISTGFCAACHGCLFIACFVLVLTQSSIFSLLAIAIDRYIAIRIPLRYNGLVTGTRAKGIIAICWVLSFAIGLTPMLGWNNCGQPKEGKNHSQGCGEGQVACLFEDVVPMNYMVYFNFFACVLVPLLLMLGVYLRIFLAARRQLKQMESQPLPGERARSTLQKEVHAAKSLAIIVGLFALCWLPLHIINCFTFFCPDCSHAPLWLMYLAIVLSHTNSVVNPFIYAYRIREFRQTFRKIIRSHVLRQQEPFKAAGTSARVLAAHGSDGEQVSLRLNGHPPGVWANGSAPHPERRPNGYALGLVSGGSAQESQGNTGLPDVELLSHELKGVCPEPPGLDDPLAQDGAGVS

Structure (SMILES)	CYP1A1-dependence of the cytotoxic response [1]	AHR-dependence of the cytotoxic response [2]	other results
Cn1cccc1-c1nc2c3cc(Cl)ccc3nc(N)n2n1 [BRO-018, 9-chloro-2-(1-methyl-1H-pyrrol-2-yl)-[1,2,4]triazolo[1,5-c]quinazolin-5-amine]	CYP1A1-dependent cytotoxic	dependence upon AHR	
Clc1cccc2ncn3nc(-c4ccco4)nc3c12 [10-chloro-2-(2-furyl)[1,2,4]triazolo[1,5-c]quinazoline]	CYP1A1-dependent cytotoxic	dependence upon AHR	
Clc1ccc2ncn3nc(-c4ccco4)nc3c2c1 [BRO-022, 9-chloro-2-(furan-2-yl)-[1,2,4]triazolo[1,5-c]quinazoline]			inhibition at 10 µM [3]: 60.7%; inhibition at 10 µM [4]: 29.5%; IC50 [5]: 170 nM; inhibition ([5]; CHO-K1, read-out: % Inhibition Average at maximal concentration): 101%; Hill Coefficient [5, 8]: 1.06; IC50 [6]: 2500 nM; inhibition ([6]; HEK293, read-out: % Inhibition Average at maximal concentration): 97.8%; Hill Coefficient [6, 8]: 1.39
COc1ccc(CCCn2ncc3c2nc(N)n2nc(-c4ccco4)nc32)cc1 [SCH 442416, reference compound]	CYP1A1-dependent cytotoxic	dependence upon AHR	
COc1cccc2c1C(=O)c1c(O)c3c(c(O)c1C2=O)C[C@@](O)(C(=O)CO)C[C@@H]3O[C@H]1C[C@H](N)[C@H](O)[C@H](C)O1 [doxorubicin]			CYP1A1 expression ([7]; 24 hour time course): no detectable induction of CYP1A1 expression; FOXA1 levels ([7]; 24 hour time course): decline in FOXA1 levels; DNA double stranded breaks (pH2A.X) and PARP cleavage ([7]; within 24 hours): induced DNA double stranded breaks
Nc1nc2ccc(C(F)(F)F)cc2c2nc(-c3ccco3)nn12 [BRO-024, 2-(furan-2-yl)-9-(trifluoromethyl)-[1,2,4]triazolo[1,5-c]quinazolin-5-amine]	CYP1A1-dependent cytotoxic	dependence upon AHR	
Nc1nc2ccc(Br)cc2c2nc(-c3ccco3)nn12 [A14]	CYP1A1-dependent cytotoxic	dependence upon AHR	
O=Cc1c2[nH]c3ccccc3c2cc2[nH]c3ccccc3c12 [FICZ, reference compound]	CYP1A1-dependent cytotoxic	dependence upon AHR	
Cc1nc2ccc(Cl)cc2c2nc(-c3ccco3)nn12 [B2]	CYP1A1-dependent cytotoxic	dependence upon AHR	
c1coc(-c2nc3c4ccccc4ncn3n2)c1 [2-(2-furyl)[1,2,4]triazolo[1,5-c]quinazoline]	CYP1A1-dependent cytotoxic	dependence upon AHR	
Nc1nc2cccc(F)c2c2nc(-c3ccco3)nn12 [A17]	CYP1A1-dependent cytotoxic	dependence upon AHR	
Cc1nc2cccc(Cl)c2c2nc(-c3ccco3)nn12 [B1]	CYP1A1-dependent cytotoxic	dependence upon AHR	
Sc1nc2ccccc2c2nc(-c3ccco3)nn12 [2-(2-furyl)[1,2,4]triazolo[1,5-c]quinazolin-5-yl hydrosulfide]	CYP1A1-dependent cytotoxic	dependence upon AHR	
O=c1[nH]c2ccccc2c2nc(-c3ccco3)nn12 [2-(2-furyl)[1,2,4]triazolo[1,5-c]quinazolin-5(6H)-one]	CYP1A1-dependent cytotoxic	dependence upon AHR	
O=C1NC(=O)c2c1c1c3ccccc3[nH]c1c1[nH]c3ccccc3c21 [Arcyriaflavin A, reference compound]	CYP1A1-dependent cytotoxic	dependence upon AHR	
Nc1nc2cccc(Cl)c2c2nc(-c3ccco3)nn12 [BRO-027, 10-chloro-2-(furan-2-yl)-[1,2,4]triazolo[1,5-c]quinazolin-5-amine]	CYP1A1-dependent cytotoxic	dependence upon AHR	
CSc1nc2ccccc2c2nc(-c3ccco3)nn12 [2-(2-furyl)-5-(methylsulfanyl)[1,2,4]triazolo[1,5-c]quinazoline]	CYP1A1-dependent cytotoxic	dependence upon AHR	
Nc1nc2cccc(C(F)(F)F)c2c2nc(-c3ccco3)nn12 [A2]	CYP1A1-dependent cytotoxic	dependence upon AHR	
O=c1[nH]c2ccc(Cl)c(Cl)c2c2nc(-c3ccco3)nn12 [A1]	CYP1A1-dependent cytotoxic	dependence upon AHR	
Cc1nc2cnccc2c2nc(-c3ccco3)nn12 [B7]	CYP1A1-dependent cytotoxic	dependence upon AHR	
CC(C)c1ccc2nc(N)n3nc(-c4ccco4)nc3c2c1 [BRO-025, 2-(furan-2-yl)-9-isopropyl-[1,2,4]triazolo[1,5-c]quinazolin-5-amine]	CYP1A1-dependent cytotoxic	dependence upon AHR	
COc1ccc2nc(N)n3nc(-c4ccco4)nc3c2c1 [A15]	CYP1A1-dependent cytotoxic	dependence upon AHR	
Nc1nc2ccc(F)cc2c2nc(-c3ccco3)nn12 [BRO-023, 9-fluoro-2-(furan-2-yl)-[1,2,4]triazolo[1,5-c]quinazolin-5-amine]	CYP1A1-dependent cytotoxic	dependence upon AHR	
c1ccc(-c2n[nH]c3c2oc2ccccc23)cc1 [GTP 14564, reference compound]	CYP1A1-dependent cytotoxic	dependence upon AHR	
Nc1nc2cc(Cl)ccc2c2nc(-c3ccco3)nn12 [BRO-026, 8-chloro-2-(furan-2-yl)-[1,2,4]triazolo[1,5-c]quinazolin-5-amine]	CYP1A1-dependent cytotoxic	dependence upon AHR	
COc1cccc2nc(N)n3nc(-c4ccco4)nc3c12 [A16]	CYP1A1-dependent cytotoxic	dependence upon AHR	
Cc1nc2ccccc2c2nc(-c3ccoc3)nn12 [Z1222312995]	CYP1A1-dependent cytotoxic	dependence upon AHR	
Cc1nc2cccc(C(F)(F)F)c2c2nc(-c3ccco3)nn12 [B3]	CYP1A1-dependent cytotoxic	dependence upon AHR	
Cc1ccc(-c2nc3c4ccccc4nc(C)n3n2)o1 [B5]	CYP1A1-dependent cytotoxic	dependence upon AHR	

Source: patent US12358918B2, “Aryl hydrocarbon receptor (AHR) activator compounds as cancer therapeutics” (THE BROAD INSTITUTE, INC., priority 2018, dated 2025)
